In patent US20240148821A1, “PHARMACEUTICAL USE OF CYCLIC PEPTIDE COMPOUND” (CHUGAI SEIYAKU KABUSHIKI KAISHA, priority 2021, published 2024):
Numbered stars: 1 amine (or outer) side, 2 acyl side, 3 side chain; on linkers, the order of the positions; unused ones are H or OH. Bridge positions count the residues as written; N and C are the ends. Square brackets hold non-standard residues; d marks the D form. Peptide text beside a SMILES is read from it. * marks the point of attachment. hPhe(3,5-F2-4-CF3) = N[C@@H](CCc1cc(F)c(C(F)(F)F)c(F)c1)C(=O)O; hPhe(3-Cl-4-CF3) = N[C@@H](CCc1ccc(C(F)(F)F)c(Cl)c1)C(=O)O; hPhe(3-F,4-CF3) = N[C@@H](CCc1ccc(C(F)(F)F)c(F)c1)C(=O)O; NEtPhe(4-CF3) = CCN[C@@H](Cc1ccc(C(F)(F)F)cc1)C(=O)O; X7 = O=C([C@@H]1C[C@H](N2CCC(F)(F)CC2)CN1[*:1])[*:2]; NMePhe(4-CF3) = CN[C@@H](Cc1ccc(C(F)(F)F)cc1)C(=O)O; 3Oxa8azabicyclo(3.2.1)octane = C1CC2COCC1N2*; NEtPhe(4-Me) = CCN[C@@H](Cc1ccc(C)cc1)C(=O)O; NMePhe(4-Cl) = CN[C@@H](Cc1ccc(Cl)cc1)C(=O)O; NMePhe(4-Me) = CN[C@@H](Cc1ccc(C)cc1)C(=O)O; NMeMet(O2) = CN[C@@H](CCS(C)(=O)=O)C(=O)O; NMedβ3hAla = C[C@H](CC(=O)[*:2])N(C)[*:1]; NMeGly(cPent) = CN[C@H](C(=O)O)C1CCCC1; NMeCha = CN[C@@H](CC1CCCCC1)C(=O)O; Hyp = O=C(O)[C@@H]1C[C@@H](O)CN1; NMeD = CN[C@@H](CC(=O)O)C(=O)O; NMeL = CN[C@@H](CC(C)C)C(=O)O; NEtAla = CCN[C@@H](C)C(=O)O; NMeV = CN[C@H](C(=O)O)C(C)C; NMeA = CN[C@@H](C)C(=O)O; NMeAib = CNC(C)(C)C(=O)O; Piperidide = C1CCN(*)CC1; Ac5c = NC1(C(=O)O)CCCC1; Aze = O=C(O)[C@@H]1CCN1; Sar = CNCC(=O)O

How the values were obtained:
[1] = target: protein-protein interaction between Kras and SOS1 (biotin-tagged human Kras loaded with GDP, His-tagged human SOS1) (Homo sapiens (Human), UniProt P01116, G12D); test: Protein-protein interaction inhibition between Kras and SOS1 (KrasG12D-SOS PPI) using AlphaScreen; type: biochemical; conditions: AlphaScreen; biotin-tagged human Kras loaded with GDP, His-tagged human SOS1; read-out: KRAS G12D-SOS PPI IC50;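 also: kras produced in E. coli, Ni-coupled donor beads and streptavidin acceptor beads, excitation 680 nm with emission detected at 520–620 nm via singlet oxygen transfer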
[2] = system: Human pancreatic cancer cell line AsPC-1 (G12D mutation Kras); test: AsPC-1 cell growth inhibition (AsPC-1 CGI); type: cell-based; conditions: read-out: AsPC-1 cell growth inhibition, 50% growth inhibitory concentration (IC50 value); 96 hours, CellTiter-Glo, values classified in ranges
Experimental: Test compounds were serially dilated with dimethyl sulfoxide, and 200 nL was then dispensed to a U-bottom 96-well plate using Labcyte Echo. […] The cell suspension was dispensed to a. plate containing a test compound at 100 μL per well and incubated at 37° C. in a 5% carbon dioxide gas incubator. 96 hours later, 80 μL of CellTiter-Glo (Promega) was added to each well and fluorescence was measured.

## CC[C@H](C)[C@@H]1NC(=O)[C@H](CCS(C)(=O)=O)N(C)C(=O)C[C@@H](C(=O)N2CCCCC2)N(C)C(=O)[C@H](C(C)C)N(C)C(=O)C2(CCCC2)NC(=O)[C@@H]2CCCN2C(=O)[C@H](CCc2ccc(C(F)(F)F)c(Cl)c2)NC(=O)CN(C)C(=O)[C@H](CC2CCCCC2)N(C)C(=O)[C@@H]2CCN2C(=O)[C@H](C)N(C)C1=O [Compound 419] ([NMeMet(O2)]I[NMeA][Aze][NMeCha][Sar][hPhe(3-Cl-4-CF3)]P[Ac5c][NMeV][NMeD]-Piperidide; lactam N-11)
[1]
  IC50: 2.4 nM
[2]
  IC50: > 500 nM

## CC[C@H](C)[C@@H]1NC(=O)[C@H](CC(C)C)N(C)C(=O)C[C@@H](C(=O)N2C3CCC2COC3)N(C)C(=O)[C@H](C2CCCC2)N(C)C(=O)C2(CCCC2)NC(=O)[C@@H]2CCCN2C(=O)[C@H](CCc2ccc(C(F)(F)F)c(Cl)c2)NC(=O)CN(C)C(=O)[C@H](Cc2ccc(C(F)(F)F)cc2)N(C)C(=O)[C@@H]2CCN2C(=O)[C@H](C)N(C)C1=O [Compound 422] ([NMeL]I[NMeA][Aze][NMePhe(4-CF3)][Sar][hPhe(3-Cl-4-CF3)]P[Ac5c][NMeGly(cPent)][NMeD]-{3Oxa8azabicyclo(3.2.1)octane}; lactam N-11)
[1]
  IC50: 0.87 nM
[2]
  IC50: ≤ 20 nM

## CCO[C@@H]1C[C@H]2C(=O)NC3(CCCC3)C(=O)N(C)[C@@H](C3CCCC3)C(=O)N(C)[C@H](C)CC(=O)N(C)[C@@H](CC(C)C)C(=O)N[C@@H]([C@@H](C)CC)C(=O)N(C)[C@@H](C)C(=O)N3CC[C@H]3C(=O)N(CC)[C@@H](Cc3ccc(C)cc3)C(=O)N(C)CC(=O)N[C@@H](CCc3cc(F)c(C(F)(F)F)c(F)c3)C(=O)N2C1 [Compound 432] (cyclo([Ac5c][NMeGly(cPent)][NMedβ3hAla][NMeL]I[NMeA][Aze][NEtPhe(4-Me)][Sar][hPhe(3,5-F2-4-CF3)][Hyp](Et)))
[1]
  IC50: 4.5 nM
[2]
  IC50: ≤ 20 nM

## CC[C@H](C)[C@@H]1NC(=O)[C@H](CC(C)C)N(C)C(=O)C[C@@H](C(=O)N2CCCCC2)N(C)C(=O)[C@H](C(C)C)N(C)C(=O)C2(CCCC2)NC(=O)[C@@H]2CCCN2C(=O)[C@H](CCc2ccc(C(F)(F)F)c(Cl)c2)NC(=O)CN(C)C(=O)[C@H](CC2CCCCC2)N(C)C(=O)[C@@H]2CCN2C(=O)[C@H](C)N(CC)C1=O [Compound 443] ([NMeL]I[NEtAla][Aze][NMeCha][Sar][hPhe(3-Cl-4-CF3)]P[Ac5c][NMeV][NMeD]-Piperidide; lactam N-11)
[1]
  IC50: 30 nM
[2]
  IC50: > 500 nM

## CC(C)C[C@H]1C(=O)N[C@@H]([C@@H](C)O)C(=O)N(C)[C@@H](C)C(=O)N2CC[C@H]2C(=O)N(C)[C@@H](CC2CCCCC2)C(=O)N(C)CC(=O)N[C@@H](CCc2ccc(C(F)(F)F)c(Cl)c2)C(=O)N2CCC[C@H]2C(=O)NC2(CCCC2)C(=O)N(C)[C@@H](C(C)C)C(=O)N(C)[C@H](C(=O)N2CCCCC2)CC(=O)N1C [Compound 450] ([NMeL]T[NMeA][Aze][NMeCha][Sar][hPhe(3-Cl-4-CF3)]P[Ac5c][NMeV][NMeD]-Piperidide; lactam N-11)
[1]
  IC50: 6.6 nM
[2]
  IC50: > 500 nM

## CC[C@H](C)[C@@H]1NC(=O)[C@H](C)N(C)C(=O)C[C@@H](C(=O)N2CCCCC2)N(C)C(=O)[C@H](C(C)C)N(C)C(=O)C2(CCCC2)NC(=O)[C@@H]2C[C@H](N3CCC(F)(F)CC3)CN2C(=O)[C@H](CCc2ccc(C(F)(F)F)c(Cl)c2)NC(=O)CN(C)C(=O)[C@H](CC2CCCCC2)N(C)C(=O)CN(C)C(=O)CN(C)C1=O [Compound 460] ([NMeA]I[Sar][Sar][NMeCha][Sar][hPhe(3-Cl-4-CF3)][X7][Ac5c][NMeV][NMeD]-Piperidide; lactam N-11)
[1]
  IC50: 1 nM
[2]
  IC50: > 500 nM

## CCO[C@@H]1C[C@H]2C(=O)NC3(CCCC3)C(=O)N(C)[C@@H](C3CCCC3)C(=O)N(C)[C@H](C)CC(=O)N(C)[C@@H](CC(C)C)C(=O)N[C@@H]([C@@H](C)CC)C(=O)N(C)[C@@H](C)C(=O)N3CC[C@H]3C(=O)N(CC)[C@@H](Cc3ccc(C(F)(F)F)cc3)C(=O)N(C)CC(=O)N[C@@H](CCc3cc(F)c(C(F)(F)F)c(F)c3)C(=O)N2C1 [Compound 466] (cyclo([Ac5c][NMeGly(cPent)][NMedβ3hAla][NMeL]I[NMeA][Aze][NEtPhe(4-CF3)][Sar][hPhe(3,5-F2-4-CF3)][Hyp](Et)))
[1]
  IC50: 3.1 nM
[2]
  IC50: ≤ 20 nM

## CC[C@H](C)[C@@H]1NC(=O)[C@H](CC(C)C)N(C)C(=O)C[C@@H](C)N(C)C(=O)[C@H](CC(C)C)NC(=O)C(C)(C)N(C)C(=O)[C@H](Cc2ccccc2)NC(=O)[C@H](CCc2ccc(C(F)(F)F)c(F)c2)NC(=O)CN(C)C(=O)[C@H](Cc2ccc(Cl)cc2)N(C)C(=O)CN(C)C(=O)CN(C)C1=O [Compound 471] (cyclo(F[NMeAib]L[NMedβ3hAla][NMeL]I[Sar][Sar][NMePhe(4-Cl)][Sar][hPhe(3-F,4-CF3)]))
[1]
  IC50: 58 nM
[2]
  IC50: > 500 nM

## CC[C@H](C)[C@@H]1NC(=O)[C@H](CC(C)C)N(C)C(=O)C[C@@H](C)N(C)C(=O)[C@H](C2CCCC2)N(C)C(=O)C2(CCCC2)NC(=O)[C@@H]2CCCN2C(=O)[C@H](CCc2ccc(C(F)(F)F)c(F)c2)NC(=O)CN(C)C(=O)[C@H](Cc2ccc(C)cc2)N(C)C(=O)[C@@H]2CCN2C(=O)[C@H](C)N(C)C1=O [Compound 481] (cyclo([Ac5c][NMeGly(cPent)][NMedβ3hAla][NMeL]I[NMeA][Aze][NMePhe(4-Me)][Sar][hPhe(3-F,4-CF3)]P))
[1]
  IC50: 2 nM
[2]
  IC50: ≤ 20 nM
